The source of these data is US7129244B2, “Triazolopyrimidines and related analogs as HSP90-inhibitors” (Conforma Therapeutics Corporation, priority 2003, dated 2006).

One experiment relates to HER2/Neu protein. In words: HER2 Degradation Assay. It is filed as cell-based. To be noted: Homo sapiens, MCF7, 16 h, MCF7 breast carcinoma cells, 16 h incubation; concentration at which there was 50% degradation of the HER2/Neu protein. As to the method: MCF7 breast carcinoma cells (ATCC) were grown in Dulbecco's modified Eagle's medium (DMEM) containing 10% fetal bovine serum (FBS) and 10 mM HEPES, and plated in 24 well plates (50% confluent). Twenty-four hrs later (cells are 65–70% confluent), test compounds were added and incubated overnight for 16 h. […] The wells were washed with 1 mL phosphate buffered saline (PBS), and 200 μL trypsin was added to each well. After trypsinization was complete, 50 μL of FBS was added to each well. Then 200 μL cells was transferred to 96 well plates. The cells were pipetted up and down to obtain a single cell suspension. The plates were centrifuged at 2,500 rpm for 1 min using a Sorvall Legend RT™ tabletop centrifuge (Kendro Laboratory Products, Asheville, N.C.). The cells were then washed once in PBS containing 0.2% BSA and 0.2% sodium azide (BA buffer). Phycoerythrin (PE) conjugated anti HER2/Neu antibody (Becton Dickinson, #340552), or PE conjugated anti-keyhole limpet hemacyanin [KLH] (Becton Dickinson, #340761) control antibody was added at a dilution of 1:20 and 1:40 respectively (final concentration was 1 μg/mL) and the cells were pipeted up and down to form a single cell suspension, and incubated for 15 mins. The cells were washed twice with 200 μL BA buffer, and resuspended in 200 μL BA buffer, and transferred to FACSCAN tubes with an additional 250 μL BA buffer. Samples were analyzed using a FACSCalibur™ flow cytometer (Becton Dickinson, San Jose, Calif.) equipped with Argon-ion laser that emits 15 mW of 488 nm light for excitation of the PE fluorochrome. 10,000 events were collected per sample. A fluorescence histogram was generated and the mean fluorescence intensity (MFI) of each sample was determined using Cellquest software. The background was defined as the MFI generated from cells incubated with control IgG-PE, and was subtracted from each sample stained with the HER2/Neu antibody. Cells incubated with DMSO was always done as untreated controls since the compounds were resuspended in DMSO. Percent degradation of HER2 was calculated as follows: % HER2 degraded=[(MFl untreated cells−MFl treated cells)/MFl untreated cell]×100
IC50 is defined as the concentration at which there was 50% degradation of the HER2/Neu protein.
In the case of `COc1cc(Cn2nnc3c(Cl)nc(N)nc32)c(Br)c(OC)c1` [Example 13, 7-chloro-3-(2-bromo-3,5-dimethoxy-benzyl)-3H-[1,2,3]triazolo[4,5-d]pyrimidin-5-ylamine], it took 16 µM to reach half-maximal inhibition (IC50). This lies in the double-digit micromolar range.

`COc1cc(Cn2nnc3c(Cl)nc(N)nc32)c(Cl)c(OC)c1OC` [Example 6, 7-chloro-3-(2-chloro-3,4,5-trimethoxy-benzyl)-3H-[1,2,3]triazolo[4,5-d]pyrimidin-5-ylamine]: half-maximal inhibition (IC50) required 12 µM.

Turning to `COc1cc(Cn2nnc3c(Cl)nc(N)nc32)c(I)c(OC)c1OC` [Example 10, 7-chloro-3-(2-iodo-3,4,5-trimethoxy-benzyl)-3H-[1,2,3]triazolo [4,5-d]pyrimidin-5-ylamine], half-maximal inhibition (IC50) required 10 µM.

Take `COc1cc(Cn2nnc3c(Cl)nc(N)nc32)cc(OC)c1OC` [Example 5, 7-chloro-3-(3,4,5-trimethoxy-benzyl)-3H-[1,2,3]triazolo[4,5-d]pyrimidin-5-ylamine]: the IC50 is 15 µM. Against the preceding compound, the IC50 is about 1.5-fold higher.

Compound `COc1cc(Cn2nnc3c(Cl)nc(N)nc32)c(Br)c(OC)c1OC` [Example 8, 7-chloro-3-(2-bromo-3,4,5-trimethoxy-benzyl)-3H-[1,2,3]triazolo[4,5-d]pyrimidin-5-ylamine] gave an IC50 of 6.5 µM. Compared with the last compound, the IC50 is about 2.3-fold lower.

`COc1c(C)cnc(Cn2nnc3c(Cl)nc(N)nc32)c1C` [Example 1, 7-chloro-3-(4-methoxy-3,5-dimethyl-pyridin-2-ylmethyl)-3H-[1,2,3]triazolo[4,5-d]pyrimidin-5-ylamine] gave an IC50 of 0.4 µM.

`COc1c(Br)c(Cn2nnc3c(Cl)nc(N)nc32)c(Br)c(OC)c1OC` [Example 9, 7-Chloro-3-(2,6-dibromo-3,4,5-trimethoxy-benzyl)-3H-[1,2,3]triazolo[4,5-d]pyrimidin-5-ylamine] displayed an IC50 of 6.3 µM.

Consider `COc1cc(Cn2nnc3c(Cl)nc(N)nc32)c(OC)cc1Br` [Example 16, 7-chloro-3-(4-bromo-2,5-dimethoxy-benzyl)-3H-[1,2,3]triazolo[4,5-d]pyrimidin-5-ylamine], for which the IC50 worked out at 22 µM. Compared with the last compound, the IC50 is about 3.5-fold higher.

Compound `COc1cc(Cl)c(OC)c(Cn2nnc3c(Cl)nc(N)nc32)c1` [Example 17, 7-chloro-3-(3-chloro-2,5-dimethoxy-benzyl)-3H-[1,2,3]triazolo[4,5-d]pyrimidin-5-ylamine] yielded an IC50 of 19 µM.

For `COc1c(Cl)c(Cn2nnc3c(Cl)nc(N)nc32)c(Cl)c(OC)c1OC` [Example 7, 7-Chloro-3-(2,6-dichloro-3,4,5-trimethoxy-benzyl)-3H-[1,2,3]triazolo[4,5-d]pyrimidin-5-ylamine], the IC50 came out at 4 µM. This IC50 is about 4.8-fold lower than that of the compound before.

As for `COc1cc(Cn2nnc3c(Cl)nc(N)nc32)c(Cl)c(OC)c1` [Example 12, 7-chloro-3-(2-chloro-3,5-dimethoxy-benzyl)-3H-[1,2,3]triazolo[4,5-d]pyrimidin-5-ylamine], half-maximal inhibition (IC50) was put at 8.5 µM.

The next experiment has as its system MCF7 breast carcinoma cells. The experiment can be described thus: MTS Assay. Type of experiment: cell-based. As to conditions: Homo sapiens, concentration giving 50% viable cell number. As to the method: MTS assays measures the cytotoxicity of geldanamycin derivatives. MTS (3-(4,5-dimethylthiazol-2-yl)-5-(3-carboxymethoxyphenyl)-2-(4-sulfophenyl)-2H-tetrazolium is a tetrazolium dye that is converted to a formazan product by dehydrogenase enzymes of metabolically active cells (Corey, A. et al. “Use of an aqueous soluble tetrazolium/formazan assay for cell growth assays in culture,” Cancer Commun. 1991, 3, 207–212). Cells were seeded in 96 well plates at 2000 cells/well and allowed to adhere overnight in Dulbecco's modified Eagle's medium supplemented with 10% fetal bovine serum. The final culture volume was 100 μl. Viable cell number was determined by using the Celltiter 96 AQueous Non-radioactive Cell Proliferation Assay (Promega, Madison Wis.). The MTS/PMS (phenazine methosulfate) solution was mixed at a ratio of 20:1, and 20 μL was added per well to 100 μl of culture medium. After 2–4 hours, the formation of the formazan product was measured at 490 nm absorbance using a multiwell plate spectrophotometer. Background was determined by measuring the Abs 490 nm of cell culture medium and MTS-PMS in the absence of cells and was subtracted from all values. Percent viable cells was calculated as follows: % viable cells=(Abs at 490 nm treated cells/Abs at 490 nm untreated cells)×100 […]
In turn, `COc1c(C)cnc(Cn2nnc3c(Cl)nc(N)nc32)c1C` [Example 1, 7-chloro-3-(4-methoxy-3,5-dimethyl-pyridin-2-ylmethyl)-3H-[1,2,3]triazolo[4,5-d]pyrimidin-5-ylamine] had an IC50 of 8 µM. In other words, the single-digit micromolar range.
